Results on nine molecules are retold here after US9284283B2, “Macrocyclic compounds for modulating IL-17” (ENSEMBLE THERAPEUTICS CORPORATION, priority 2012, dated 2016).

The test system of experiment [1] is IL-17A induced secretion of IL-6 in primary human RASF cells. The experiment can be described thus: Inhibition of IL17A induced secretion of IL6 in human rheumatoid arthritis synovial fibroblast (RASF) cells. The settings on record: Homo sapiens, Fibroblast. It is filed as cell-based. In a few lines: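 Primary RASF cells (passage 2-8) stimulated 20 h at 37 °C with rhIL-17A (30 ng/mL) pre-incubated 1 h with compound (final 0.03-25 μM, 0.25% DMSO). Supernatant IL-6 measured by ELISA, normalized to WST1 viability; triplicates.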

Experiment [2] deals with IL-17-induced GROα secretion from HT-29 cells. The experiment can be described thus: HT-29 cellular assay (IL-17-induced GROα secretion). It is filed as cell-based. Conditions: Homo sapiens. The protocol: To test the ability of a compound of the invention to neutralize or antagonize IL-17 bioactivity, the following cell-based assay was used. IL-17 can stimulate epithelial cells and other cells to secrete GROα. The ability of a compound of the invention to neutralize IL-17-induced GROα secretion from the human colorectal adenocarcinoma epithelial cell line HT-29 is tested in this assay.
HT-29 cells (human colorectal adenocarcinoma epithelial cells, ATCC #HTB-38), were maintained in culture/assay medium in tissue culture-treated flasks using standard techniques. HT-29 cells were grown in tissue culture flasks until they were 50-80% confluent on the day before the assay. The day before the assay, the cells were detached from the culture flasks with trypsin+EDTA. The trypsin was inactivated with complete assay medium. HT-29 cells were then centrifuged at 500×g for 5 minutes at room temperature. The cell pellet was then re-suspended in Defined Keratinocyte SFM (Invitrogen #10766019)+10% FCS and 50,000 HT-29 cells (in 100 μl) were added to each treatment well of the 96-well plates. The 96-well plates were placed in a tissue culture incubator (37° C., 5% CO2) overnight. The next day, the media was removed from the cells and the cells were washed twice with Defined Keratinocyte SFM. In a separate 96-well plate, compounds to be tested were serially diluted in Defined Keratinocyte SFM and run in triplicate in 100 μL total volume. To these compound samples were then added 100 μL of human IL-17 at a concentration of 20 ng/mL in Defined Keratinocyte SFM for serum-free assays. 150 μL of the compound/IL-17 mixture was then added to the cells from which the media has previously been removed. The cells were grown for 48 hours in Defined Keratinocyte SFM in a tissue culture incubator (37° C., 5% CO2).
At the end of the incubation, the plates are centrifuged (500×g for 5 minutes at room temperature), and the cell culture media is transferred to polypropylene 96-well plates. The supernatant was used neat in the ELISA. GROα levels are measured with a GROα sandwich ELISA (R+D Systems DuoSet #DY275E), as per the manufacturer's instructions. The ELISA plates were previously coated with mAb 275 (R+D Systems) at 4 μg/mL. GROα is detected using biotinylated goat anti-human GROα (R+D Systems BAF275) at 200 ng/mL using TMB as a substrate. At the end of the ELISA reactions, plates are read at 450 nm on a microplate reader and compared to a standard calibration curve.

As usually defined, the IC50 is the concentration that gives 50% inhibition. Lower therefore signals greater potency. On to `O=C1CNC(=O)[C@@H](Cc2ccc(NC(=O)[C@H](Cc3ccccc3Cl)NC(=O)c3cccnc3)cc2)NC(=O)CC2(CCCC2)CC(=O)NCCCCCN1` [Compound 194], for which the IC50 in experiment [1] lay in the range of 0.1 to 1 µM.

Molecule `O=C1CNC(=O)[C@@H](Cc2ccc(NC(=O)[C@H](Cc3ccccc3Cl)NC(=O)Cc3ccccn3)cc2)NC(=O)CC2(CCCC2)CC(=O)NCCCCCN1` [Compound 226] registered an IC50 in experiment [1] of 1 to 10 µM.

`COC(=O)[C@@H]1CCCCNC(=O)CNC(=O)[C@@H](Cc2ccc(NC(=O)[C@H](Cc3ccccc3Cl)NC(=O)c3ccccc3)cc2)NC(=O)CC2(CCCC2)CC(=O)N1` [Compound 144]: the IC50 in experiment [1] and in experiment [2] was 1 to 10 µM in each case.

In the case of `O=C1CNC(=O)[C@@H](Cc2ccc(NC(=O)[C@H](Cc3ccc(Cl)cc3Cl)NC(=O)Cc3ccccc3)cc2)NC(=O)CC2(CCCC2)CC(=O)NCCCCCN1` [Compound 185], the IC50 in experiment [1] and in experiment [2] was 1 to 10 µM each time.

With `O=C1CNC(=O)[C@@H](Cc2ccc(NC(=O)[C@H](Cc3ccccc3Cl)NC(=O)Cc3ccccc3)cc2)NC(=O)CC2(CCCC2)CC(=O)NCCCCCN1` [Compound 159], the IC50 was 1 to 10 µM in experiment [1] and less than 1 µM in experiment [2].

Turning to `O=C1CNC(=O)[C@@H](Cc2ccc(NC(=O)[C@H](Cc3ccc(Cl)cc3Cl)NC(=O)Cc3ccc(O)cc3)cc2)NC(=O)CC2(CCCC2)CC(=O)NCCCCCN1` [Compound 191], the IC50 is 1 to 10 µM in experiment [1] and less than 1 µM in experiment [2].

With `COC(=O)[C@@H]1CCCCNC(=O)CCCNC(=O)[C@@H](Cc2ccc(NC(=O)[C@H](Cc3ccccc3F)NC(=O)Cc3ccccc3)cc2)NC(=O)CC2(CCCC2)CC(=O)N1` [Compound 106], the half-inhibitory concentration (IC50) in experiment [1] and in experiment [2] was more than 10 µM each time.

In experiment [1], `O=C1CNC(=O)[C@@H](Cc2ccc(NC(=O)[C@@H](NC(=O)Cc3ccccc3)C3CCCCC3)cc2)NC(=O)CC2(CCCC2)CC(=O)NCCCCCN1` [Compound 186] gave an IC50 of 1 to 10 µM.

As for `COC(=O)[C@@H]1CCCCNC(=O)CNC(=O)[C@@H](Cc2ccc(NC(=O)[C@H](Cc3ccccc3Cl)NC(=O)Cc3ccccc3)cc2)NC(=O)CC2(CCCC2)CC(=O)N1` [Compound 143], the IC50 in experiment [1] was 1 to 10 µM; in experiment [2] it was less than 1 µM.
